14 compounds from PubChem BioAssay AID180 (DTP/NCI, 2004) can be followed below.

Values joined by “and” are separate entries in the source; they are usually repeats but may differ in a detail not shown here. Equal values may be shown once.

This assay relates to BDF1 mice, Adenocarcinoma 755 s.c., tumor weight T/C. The assay can be described thus: NCI In Vivo Anticancer Drug Screen. Data for tumor model Adenocarcinoma 755 (subcutaneous) in B6D2F1 (BDF1) mice. The settings on record: endpoint: mean tumor weight, schedule: Q01DX011 (ip), higher = larger tumour. On the procedure:
The antitumor activity of compounds was measured in mice bearing transplantable tumors. Survival or tumor size were measured and the results are expressed as the measurement made in the treated group (T) divided by the measurement made in the vehicle treated control group (C). The tumor model used in this assay is Adenocarcinoma 755 (subcutaneous) in B6D2F1 (BDF1) mice

Setting [1] is: dose: 25.0 mg/kg/injection, vehicle: methylcellulose (MC).
Where [2] appears, read: dose: 50.0 mg/kg/injection, vehicle: methylcellulose (MC).
The mark [3] stands for this setting: dose: 100.0 mg/kg/injection, vehicle: methylcellulose (MC).
Setting [4] is: dose: 31.0 mg/kg/injection, vehicle: methylcellulose (MC).
The mark [5] stands for this setting: dose: 30.0 mg/kg/injection, vehicle: carboxymethylcellulose (CMC).

Consider `CCN(CC)CCNc1ccc(C)c2sc3ccccc3c(=O)c12`, for which the T/C is 73 % of control (dose: 12.5 mg/kg/injection, vehicle: methylcellulose (MC)); 98 % of control (dose: 12.93 mg/kg/injection, vehicle: carboxymethylcellulose (CMC)); 51 % of control under setting [1]; 117 % of control (dose: 25.87 mg/kg/injection, vehicle: carboxymethylcellulose (CMC)); 73 % of control (dose: 25.88 mg/kg/injection, vehicle: carboxymethylcellulose (CMC)); 75 % of control (dose: 32.35 mg/kg/injection, vehicle: carboxymethylcellulose (CMC)). The T/C was 49 % of control (dose: 43.13 mg/kg/injection, vehicle: carboxymethylcellulose (CMC)); 35 % of control under setting [2]; 44 % of control and 46 % of control and 59 % of control (dose: 51.75 mg/kg/injection, vehicle: carboxymethylcellulose (CMC)); 15 % of control (dose: 59.1 mg/kg/injection, vehicle: carboxymethylcellulose (CMC)); 23 % of control (dose: 64.7 mg/kg/injection, vehicle: carboxymethylcellulose (CMC)); 7 % of control (dose: 82.8 mg/kg/injection, vehicle: carboxymethylcellulose (CMC)). For the same compound, the T/C by setting is: under setting [3], 1 % of control; (dose: 103.5 mg/kg/injection, vehicle: carboxymethylcellulose (CMC)) 5 % of control; (dose: 1617.5 micrograms/kg/injection, vehicle: carboxymethylcellulose (CMC)) 70 % of control; (dose: 3235.0 micrograms/kg/injection, vehicle: carboxymethylcellulose (CMC)) 38 % of control; (dose: 6470.0 micrograms/kg/injection, vehicle: carboxymethylcellulose (CMC)) 15 % of control; (dose: 8087.0 micrograms/kg/injection, vehicle: carboxymethylcellulose (CMC)) 72 % of control.

For the compound `CCOc1nc(N)nc2nc[nH]c12`, the T/C reads like this: (dose: 8.0 mg/kg/injection, vehicle: methylcellulose (MC)) 88 % of control; (dose: 16.0 mg/kg/injection, vehicle: methylcellulose (MC)) 55 % of control; under setting [4], 59 % of control.

For `CC(C)C(Nc1ncnc2nc[nH]c12)C(=O)O` (configuration not stated), the T/C was 180 % of control (dose: 12.0 mg/kg/injection, vehicle: methylcellulose (MC)); 230 % of control under setting [1]; 239 % of control under setting [2]; 192 % of control under setting [3].

With `[I][Hg][CH2]C1OC2CCC1C[CH]2[Hg][I]` (configuration not stated), the T/C (dose: 6.0 mg/kg/injection, vehicle: carboxymethylcellulose (CMC)) is 89 % of control.

Take `CC(=O)OCC1OC(n2c(Br)nc3c(=O)[nH]c(N)nc32)C(OC(C)=O)C1OC(C)=O` (configuration not stated): the T/C by setting is: under setting [5], 95 % of control; (dose: 60.0 mg/kg/injection, vehicle: carboxymethylcellulose (CMC)) 119 % of control; (dose: 120.0 mg/kg/injection, vehicle: carboxymethylcellulose (CMC)) 90 % of control; (dose: 240.0 mg/kg/injection, vehicle: carboxymethylcellulose (CMC)) 82 % of control.

As for `[I][Hg][CH2]C1COCC([CH2][Hg][I])O1.[I][Hg][CH2]C1COCC([CH2][Hg][I])O1` (configuration not stated), the T/C reads like this: (dose: 10.0 mg/kg/injection, vehicle: other) 59 % of control; (dose: 20.0 mg/kg/injection, vehicle: other) 63 % of control; (dose: 40.0 mg/kg/injection, vehicle: other) 31 % of control.

On to `CC1(C)N=C(N)N=C(N)N1c1cccc(Cl)c1`, for which the T/C runs as follows: (dose: 1.15 mg/kg/injection, vehicle: carboxymethylcellulose (CMC)) 89 % of control; (dose: 2.3 mg/kg/injection, vehicle: carboxymethylcellulose (CMC)) 72 % of control; (dose: 4.6 mg/kg/injection, vehicle: carboxymethylcellulose (CMC)) 121 % of control; (dose: 9.2 mg/kg/injection, vehicle: carboxymethylcellulose (CMC)) 88 % of control.

Consider `Nc1[nH]c(=O)[nH]c(=O)c1C(=O)CCl`, for which the T/C under setting [5] is 77 % of control.

For the compound `CCSc1ncnc2nc[nH]c12`, the T/C reads like this: (dose: 2.5 mg/kg/injection, vehicle: carboxymethylcellulose (CMC)) 40 % of control; (dose: 100.0 mg/kg/injection, vehicle: carboxymethylcellulose (CMC)) 1 % of control.

Regarding `CN(C)c1nc(N)c2ncn(C3OC(CO)C(O)C3O)c2n1` (configuration not stated), the T/C was 80 % of control under setting [4] and 74 % of control (dose: 125.0 mg/kg/injection, vehicle: methylcellulose (MC)).

Take `CC(=O)OCC1OC(n2cnc3c(=S)nc(N)[nH]c32)C(OC(C)=O)C1OC(C)=O` (configuration not stated): the T/C is 86 % of control (dose: 0.1 mg/kg/injection, vehicle: carboxymethylcellulose (CMC)); 77 % of control (dose: 0.2 mg/kg/injection, vehicle: carboxymethylcellulose (CMC)); 69 % of control (dose: 0.5 mg/kg/injection, vehicle: carboxymethylcellulose (CMC)); 11 % of control and 35 % of control (dose: 1.0 mg/kg/injection, vehicle: carboxymethylcellulose (CMC)); 26 % of control (dose: 1.5 mg/kg/injection, vehicle: other); 3 % of control (dose: 3.0 mg/kg/injection, vehicle: other).

In the case of `CCOC(=O)CN=NNc1nc[nH]c1C(N)=O`, the T/C is 58 % of control (dose: 56.0 mg/kg/injection, vehicle: carboxymethylcellulose (CMC)); 106 % of control (dose: 112.0 mg/kg/injection, vehicle: carboxymethylcellulose (CMC)); 81 % of control (dose: 175.0 mg/kg/injection, vehicle: carboxymethylcellulose (CMC)); 27 % of control (dose: 225.0 mg/kg/injection, vehicle: carboxymethylcellulose (CMC)); 58 % of control (dose: 350.0 mg/kg/injection, vehicle: carboxymethylcellulose (CMC)).

Turning to `Cn1c(=O)c2[nH]cnc2n(C)c1=O`, the T/C reads like this: (dose: 14.5 mg/kg/injection, vehicle: carboxymethylcellulose (CMC)) 85 % of control; (dose: 18.25 mg/kg/injection, vehicle: carboxymethylcellulose (CMC)) 68 % of control; (dose: 19.87 mg/kg/injection, vehicle: carboxymethylcellulose (CMC)) 80 % of control; (dose: 29.0 mg/kg/injection, vehicle: carboxymethylcellulose (CMC)) 44 % of control; (dose: 36.5 mg/kg/injection, vehicle: carboxymethylcellulose (CMC)) 92 % of control; (dose: 39.74 mg/kg/injection, vehicle: carboxymethylcellulose (CMC)) 52 % of control. The T/C runs as follows: (dose: 63.0 mg/kg/injection, vehicle: carboxymethylcellulose (CMC)) 86 % of control; (dose: 77.33 mg/kg/injection, vehicle: carboxymethylcellulose (CMC)) 53 % of control and 72 % of control; (dose: 79.48 mg/kg/injection, vehicle: carboxymethylcellulose (CMC)) 53 % of control; (dose: 116.0 mg/kg/injection, vehicle: carboxymethylcellulose (CMC)) 75 % of control; (dose: 158.97 mg/kg/injection, vehicle: carboxymethylcellulose (CMC)) 60 % of control.

On to `CN(Cc1cnc2nc(NCNC(=O)C3=C(O)[C@@]4(O)C(=O)C5=C(O)c6c(O)cccc6[C@@](C)(O)[C@H]5C[C@H]4[C@H](N(C)C)C3=O)nc(N)c2n1)c1ccc(C(=O)NC(CCC(=O)O)C(=O)O)cc1` (some centres not stated), for which the T/C by setting is: (dose: 1.5 mg/kg/injection, vehicle: saline) 109 % of control; (dose: 3.0 mg/kg/injection, vehicle: saline) 103 % of control; (dose: 6.0 mg/kg/injection, vehicle: saline) 69 % of control.

In general, T/C refers to the result in the treated group divided by that in the control group, in per cent.
